The results in this text go back to patent publication US9884043B2, “RORgammaT inhibitors” (Merck Sharp & Dohme Corp., priority 2011, dated 2018).

The target in one test is T1, HIS-tagged RORγ-LBD (Homo sapiens, UniProt P51449).
T1 construct: HIS-tagged RORγ-LBD was recombinantly expressed in SF9 cells using a baculovirus expression system; made in house; host or cells: SF9 cells, baculovirus; crude lysate used
T1 sequence (P51449 269-508 limits assumed): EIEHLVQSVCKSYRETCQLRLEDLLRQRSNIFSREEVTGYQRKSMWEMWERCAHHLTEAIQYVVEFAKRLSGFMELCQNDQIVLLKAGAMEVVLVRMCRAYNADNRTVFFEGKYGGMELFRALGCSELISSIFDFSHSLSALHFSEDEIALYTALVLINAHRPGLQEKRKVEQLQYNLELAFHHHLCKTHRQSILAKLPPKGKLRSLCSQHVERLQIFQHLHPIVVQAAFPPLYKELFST
Kind of test: TR-FRET assay (Protocol B), RORγ-LBD lysate / biotinylated SRC1-2 LXXLL peptide. The format is biochemical. The following applies: unpurified RORγ-LBD lysate ~10 nM, SRC1-2 peptide 450 nM.
On to `O=C(O)c1c(O)cc(-c2nn(C(=O)c3c(Cl)cccc3C(F)(F)F)c3cccc(F)c23)cc1F` [Example 26D, 4-(1-(2-chloro-6-(trifluoromethyl)benzoyl)-4-fluoro-1H-indazol-3-yl)-2-fluoro-6-hydroxybenzoic acid], for which the half-inhibitory concentration (IC50) is less than 50 nM.

`COc1cccc(F)c1C(=O)n1nc(-c2ccc(C(=O)O)cc2)c2c(F)cccc21` [Example 24AB, 4-(4-fluoro-1-(2-fluoro-6-methoxybenzoyl)-1H-indazol-3-yl)benzoic acid] registered an IC50 of less than 50 nM.

A further test addresses T2, 6His(GST)RORgamma-LBD (Homo sapiens, UniProt P51449).
T2 construct: the applied RORgamma-LBD contains a 6-His and GST tag; GST (N); made in house; host or cells: baculovirus-infected Sf-21 insect cells
T2 sequence (P51449 269-508 limits assumed): T1 sequence (P51449 269-508 limits assumed)
Kind of test: TR-FRET assay (Protocol A), RORgamma-LBD / SRC1_2 co-activator peptide interaction. The format is biochemical. The following applies: SRC1_2 peptide 0.1 μM, RORgamma-LBD 10 nM, overnight incubation at 4° C. An excerpt:
Activation of RORgammaT activity can be measured using e.g. biochemical TR-FRET assay. In such an assay, interaction of cofactor-derived peptides with human RORgammaT-Ligand Binding Domain (LBD) can be measured.
To identify novel antagonists of RORgammaT, an assay was developed which employs the interaction of RORgammaT with its co-activator peptide SRC1_2. […] The assay was run following three slightly different protocols, i.e. Protocol A, Protocol B, and Protocol C, which are described below.
TR-FRET Assay (Protocol A)
The 6His(GST)RORgamma-LBD was expressed and purified from baculovirus infected Sf-21 insect cells (Bac-to-BAC, Invitrogen) and purified using glutathione sepharose chromatography (GE healthcare). Biotin and His function as anchoring points for streptavidin-allophycocyanin (Strep-APC, Perkin Elmer, C130-100) and anti-His-Europium Cryptate (Perkin Elmer, AD0111), respectively. Since energy transfer between the streptavidin and His-coupled labels APC and europium cryptate can only take place when these labels are in close proximity, measurement of energy transfer in a mixture of biotinylated peptide, His-GR-LBD, streptavidin-APC and anti-His-Europium Cryptate will be indicative for RORy-LBD/peptide binding. […] Changes in peptide binding caused by dose-curves of compounds added to the reaction mixture (DMSO concentration 0.1%), can likewise be monitored.
In turn, `O=C(O)c1ccc(-c2nn(C(=O)c3c(Cl)cccc3Cl)c3c(F)cccc23)cc1` [Example 3, 4-(1-(2,6-dichlorobenzoyl)-7-fluoro-1H-indazol-3-yl)benzoic acid] showed an EC50 of 18.6 nM.

The molecule `O=C(O)c1ccc(-c2nn(C(=O)c3c(Cl)cccc3Cl)c3ccc(F)cc23)cc1` [Example 2, 4-(1-(2,6-dichlorobenzoyl)-5-fluoro-1H-indazol-3-yl)benzoic acid] showed an EC50 of 245 nM.

With `O=C(O)c1ccc(-c2nn(C(=O)c3c(Cl)cc(Cl)cc3Cl)c3ccccc23)cc1` [Example 11H, 4-(1-(2,4,6-trichlorobenzoyl)-1H-indazol-3-yl)benzoic acid], the EC50 was 70.8 nM.

Consider `O=C(O)c1ccc(-c2nn(C(=O)c3c(F)cccc3C(F)(F)F)c3ccccc23)cc1` [Example 11F, 4-(1-(2-fluoro-6-(trifluoromethyl)benzoyl)-1H-indazol-3-yl)benzoic acid], for which a half-maximal effect (EC50) was put at 39.8 nM.

For `Cc1cc(C)cc(S(=O)(=O)n2nc(-c3ccc(C(=O)O)cc3F)c3ccccc32)c1` [Example 17, 4-(1-(3,5-dimethylphenylsulfonyl)-1H-indazol-3-yl)-3-fluorobenzoic acid], the EC50 is 1230 nM.

In turn, `O=C(O)c1ccc(-c2nn(C(=O)C3CCCCC3)c3ccccc23)cc1` [Example 11D, 4-(1-(cyclohexanecarbonyl)-1H-indazol-3-yl)benzoic acid] gave an EC50 of 525 nM.

In the case of `Cc1noc(C)c1S(=O)(=O)n1nc(-c2ccc(-c3nnn[nH]3)cc2)c2ccccc21` [Example 21D, 4-(3-(4-(1H-tetrazol-5-yl)phenyl)-1H-indazol-1-ylsulfonyl)-3,5-dimethylisoxazole], the EC50 is 741 nM.

Molecule `O=C(O)c1ccc(-c2nn(C(=O)c3cccc(Cl)c3Cl)c3ccccc23)cc1` [Example 11K, 4-(1-(2,3-dichlorobenzoyl)-1H-indazol-3-yl)benzoic acid] gave an EC50 of 21.4 nM.

For the molecule `COC(=O)c1ccccc1C(=O)n1nc(-c2ccc(C(=O)O)cc2)c2ccccc21` [Example 11C, 4-(1-(2-(methoxycarbonyl)benzoyl)-1H-indazol-3-yl)benzoic acid], the response was half-maximal at 513 nM (EC50).

`O=S(=O)(c1ccc(F)cc1Br)n1nc(-c2ccc(-c3nnn[nH]3)cc2)c2ccccc21` [Example 21B, 3-(4-(1H-tetrazol-5-yl)phenyl)-1-(2-bromo-4-fluorophenylsulfonyl)-1H-indazole] showed a half-maximal effective concentration (EC50) of 575 nM.

The molecule `CCOc1ccccc1C(=O)n1nc(-c2ccc(C(=O)O)cc2)c2ccccc21` [Example 11J, 4-(1-(2-ethoxybenzoyl)-1H-indazol-3-yl)benzoic acid] showed a concentration giving a half-maximal response (EC50) of 1910 nM.

`O=C(O)c1ccc(-c2nn(C(=O)c3ccccc3C(F)(F)F)c3cccnc23)cc1` [Example 6B, 4-(1-(2-(trifluoromethyl)benzoyl)-1H-pyrazolo[4,3-b]pyridin-3-yl)benzoic acid] had a concentration for a half-maximal effect (EC50) of 224 nM.

Turning to `O=C(c1c(Cl)cccc1Cl)n1nc(-c2ccc(-c3nnn[nH]3)cc2)c2ccccc21` [Example 22, (3-(4-(1H-tetrazol-5-yl)phenyl)-1H-indazol-1-yl)(2,6-dichlorophenyl)methanone], the EC50 is 5010 nM.

Consider `O=C(O)c1ccc(-c2nn(C(=O)c3c(Cl)cccc3Cl)c3cccnc23)cc1` [Example 6A, 4-(1-(2,6-dichlorobenzoyl)-1H-pyrazolo[4,3-b]pyridin-3-yl)benzoic acid], for which a half-maximal effect (EC50) was put at 13.5 nM.

As to `Cc1cccc(C)c1C(=O)n1nc(-c2ccc(C(=O)O)cc2)c2ccccc21` [Example 11I, 4-(1-(2,6-dimethylbenzoyl)-1H-indazol-3-yl)benzoic acid], the EC50 is 72.4 nM.

`COc1cccc(F)c1C(=O)n1nc(-c2ccc(C(=O)O)cc2)c2ccccc21` [Example 11G, 4-(1-(2-fluoro-6-methoxybenzoyl)-1H-indazol-3-yl)benzoic acid] gave an EC50 of 60.3 nM.

Turning to `O=C(O)c1ccc(-c2nn(S(=O)(=O)c3cccc4cccnc34)c3ccccc23)cc1` [Example 13A, 4-(1-(quinolin-8-ylsulfonyl)-1H-indazol-3-yl)benzoic acid], the concentration for a half-maximal effect (EC50) was 155 nM.

In the case of `O=C(O)c1ccc(-c2nn(C(=O)c3ccccc3Br)c3ccccc23)cc1` [Example 11B, 4-(1-(2-bromobenzoyl)-1H-indazol-3-yl)benzoic acid], the EC50 is 44.7 nM.

The molecule `O=C(O)c1ccc(-c2nn(S(=O)(=O)c3ccccc3Cl)c3ccncc23)cc1` [Example 16, 4-(1-(2-chlorophenylsulfonyl)-1H-pyrazolo[4,3-c]pyridin-3-yl)benzoic acid] had a half-maximal effective concentration (EC50) of 955 nM.

In the case of `O=C(O)c1ccc(-c2nn(C(=O)c3c(Cl)cncc3Cl)c3ccccc23)cc1` [Example 11A, 4-(1-(3,5-dichloroisonicotinoyl)-1H-indazol-3-yl)benzoic acid], the EC50 was 339 nM.

As for `Cc1ccc(C#N)c(S(=O)(=O)n2nc(-c3ccc(C(=O)O)cc3)c3ccccc32)c1` [Example 15E, 4-(1-(2-cyano-5-methylphenylsulfonyl)-1H-indazol-3-yl)benzoic acid], a half-maximal response (EC50) required 513 nM.

The molecule `O=C(O)c1ccc(-c2nn(S(=O)(=O)c3ccccc3Br)c3ccccc23)cc1` [Example 13B, 4-(1-(2-bromophenylsulfonyl)-1H-indazol-3-yl)benzoic acid] showed an EC50 of 79.4 nM.

`O=C(O)c1ccc(-c2nn(C(=O)c3c(Cl)cccc3Br)c3ccccc23)cc1` [Example 11E, 4-(1-(2-bromo-6-chlorobenzoyl)-1H-indazol-3-yl)benzoic acid] had an EC50 of 26.9 nM.

In turn, `O=C(O)c1ccc(-c2nn(C(=O)c3c(Cl)cccc3Cl)c3cccc(F)c23)cc1` [Example 4, 4-(1-(2,6-dichlorobenzoyl)-4-fluoro-1H-indazol-3-yl)benzoic acid] had a 50% effective concentration (EC50) of 8.32 nM.

In turn, `O=C(O)c1ccc(-c2nn(C(=O)c3ccccc3Cl)c3ccccc23)cc1` [Example 11L, 4-(1-(2-chlorobenzoyl)-1H-indazol-3-yl)benzoic acid] had an EC50 of 26.3 nM.

`Cc1cccc([N+](=O)[O-])c1C(=O)n1nc(-c2ccc(C(=O)O)cc2)c2ccccc21` [Example 11N, 4-(1-(2-methyl-6-nitrobenzoyl)-1H-indazol-3-yl)benzoic acid] had an EC50 of 25.7 nM.

`O=C(O)c1ccc(-c2cn(C(=O)c3c(Cl)cccc3Cl)c3cccnc23)cc1` [Example 7, 4-(1-(2,6-dichlorobenzoyl)-1H-pyrrolo[3,2-b]pyridin-3-yl)benzoic acid] had an EC50 of 14.1 nM.

The molecule `O=C(O)c1ccc(-c2nn(S(=O)(=O)c3cc(Cl)ccc3Cl)c3ccccc23)cc1` [Example 13C, 4-(1-(2,5-dichlorophenylsulfonyl)-1H-indazol-3-yl)benzoic acid] gave an EC50 of 75.9 nM.

Consider `O=C(O)c1ccc(-c2nn(S(=O)(=O)c3cccc(Cl)c3Cl)c3ccccc23)cc1` [Example 13E, 4-(1-(2,3-dichlorophenylsulfonyl)-1H-indazol-3-yl)benzoic acid], for which a half-maximal effect (EC50) was put at 26.3 nM.

In the case of `N#Cc1ccccc1S(=O)(=O)n1nc(-c2ccc(C(=O)O)cc2)c2ccccc21` [Example 14, 4-(1-(2-cyanophenylsulfonyl)-1H-indazol-3-yl)benzoic acid], it took 1950 nM to reach a half-maximal effect (EC50).

In the case of `O=C(O)c1ccc(-c2nn(S(=O)(=O)c3ccccc3OC(F)(F)F)c3ccccc23)cc1` [Example 15A, 4-(1-(2-(trifluoromethoxy)phenylsulfonyl)-1H-indazol-3-yl)benzoic acid], a half-maximal response (EC50) required 275 nM.

Consider `O=C(O)c1ccc(-c2nn(S(=O)(=O)c3cccc4nonc34)c3ccccc23)cc1` [Example 15D, 4-(1-(benzo[c][1,2,5]oxadiazol-4-ylsulfonyl)-1H-indazol-3-yl)benzoic acid], for which the EC50 is 4470 nM.

The molecule `O=S(=O)(c1ccccc1C(F)(F)F)n1nc(-c2ccc(C(O)(C(F)(F)F)C(F)(F)F)cc2)c2ccccc21` [Example 9, 1,1,1,3,3,3-hexafluoro-2-(4-(1-(2-(trifluoromethyl)phenylsulfonyl)-1H-indazol-3-yl)phenyl)propan-2-ol] showed an EC50 of 9330 nM.
